Results as given in patent US7951232B2, “Surface coating compositions and methods” (Elevance Renewable Sciences, Inc., priority 2006, dated 2011).

Experiments:
[1] = test system: Pseudomonas aeruginosa ATCC 15442; test: MIC and MBC determination in Mueller-Hinton Broth; assay type: cell-based; settings: no-growth tubes subcultured on TSA, 37±2° C., 20-24 hours
Method: Efficacy of 9-decenoic acid and the methyl ester of 9-decenoic acid against Pseudomonas aeruginosa ATCC 15442, Escherichia coli 0157:H7 ATCC 43895 and Candida albicans ATCC 10231 was measured through the determination of the minimum inhibitory concentration (MIC) and minimum bacteriocidal concentration (MBC) using the procedures in the Federal Register, June 1994 and the present NCCLS M11-A4 protocol.
Stock cultures of each organism were transferred onto Mueller-Hinton Agar (MHA) plates and incubated for 24±2 hours at 37±2° C. On the day of the test, the top of at least three to five well-isolated colonies were transferred via wire loop to a tube containing 4 to 5 ml of Trypticase Soy Broth (TSB). The TSB culture was incubated for 2 to 6 hours and turbidity was adjusted with sterile saline to achieve the turbidity of the 0.5 McFarland Standard.
The concentrated 9-decenoic acid was diluted 1:40 in Mueller-Hinton Broth (MHB) to yield a 2.5% stock solution. The test solution of the methyl ester of 9-decenoic acid was formulated in the same manner. For each organism, 12 dilutions of the 9-decenoic acid and the methyl ester of 9-decenoic acid in MHB were prepared ranging from 0.2500 to 0.0005%. A 2-ml aliquot of appropriately diluted 9-decenoic acid or the methyl ester of 9-decenoic acid solution was placed in each tube. Each tube was inoculated with 0.05 ml of a 1:10 dilution of one challenge organism. Tubes were incubated at 37±2° C. for 20-24 hours and observed for growth or no growth. […] Controls were run for sterility, viability and organism confirmation. It was determined that all cultures were viable and pure.
The MBC was defined as the concentration of 9-decenoic acid or the methyl ester of 9-decenoic acid that completely eradicated viable organisms from the test system.

[2] = test system: Escherichia coli, ATCC 11229; test: Time-Kill Procedure (ASTM) at pH 7; assay type: cell-based
Method: The rate of kill for these organisms upon exposure to 9-decenoic acid was determined using the American Society for Testing and Materials (ASTM) procedure entitled “Standard Test Method for the Assessment of Microbiocidal Activity of Test Materials Using a Time-Kill Procedure”, October 1998. This procedure incorporates the recommendations described in the “Manual of Clinical Microbiology,”5th ed., edited by A. B. Balows et al., ASM, Washington, and is directed by the Federal Register, June 1994.
Stock cultures were transferred into TSB and incubated for 18-24 hours at 37±2° C. A second transfer was made onto TSA plates and were incubated for 18-24 hours at 37±2° C. The plates were removed from incubation and the bacterial growth washed from the agar surface using Butterfield's Phosphate Buffered Dilution Water (PBDW). The bacterial suspension was adjusted to contain approximately 10^8 Colony Forming Units (CFU)/ml with PBDW using spectrophometric methods extant in the laboratory.
The concentrated 9-decenoic acid was diluted 1:40 in filter sterilized isopropanol to yield a 2.5% stock solution. Subsequent dilutions to the 9-decenoic acid stock solutions were made with sterile Deionized Water (DI) to achieve concentrations of 0.1%, 0.05%, 0.01%, and 0.001%. The pH was determined for each dilution; pH values ranged from 4.4-4.1. Additionally, the 9-decenoic acid stock solution was adjusted to pH 7 with 1 N NaOH and serially diluted with sterile DI to achieve concentrations of 1.0%, 0.75% and 0.5%.
Compliant with the ASTM procedure cited, for each challenge microorganism a 9.9 ml aliquot of the prepared 9-decenoic acid suspension was added to a sterile tube. A 0.1 ml aliquot of the standardized inoculum was added to the 9-decenoic acid solution representing the start of the test exposure. The inoculated 9-decenoic acid solution was immediately mixed thoroughly. The inoculated suspension was held at room temperature for 0.5, 2, 5, 7 and 10 minute exposure times for tests run at ˜pH 4. The pH 7 tests were held at room temperature for 0.5 and 2 minutes.
At each exposure sample time, a 1.0 ml aliquot of the inoculated 9-decenoic acid suspension was transferred to 9.0 ml of D/E Neutralizing Broth. Additional ten-fold serial dilutions were made in PBDW and plated in duplicate on TSA. All plates were incubated for 48 hours at 37±2° C. and visually examined for growth. The plates are enumerated, recorded and log kill determined for each time point.
The following study controls were conducted: culture purity, neutralizer sterility, initial suspension population, test population, neutralization verification and a negative control using isopropanol. Culture purity was verified by performing a streak plate for isolated colonies on the each culture used. All cultures were determined to be pure based on consistent colony morphology typical for the test organism. The neutralizer sterility was confirmed by no growth in an incubated sample.
The population of the initial and test culture were determined by serial dilution, plating and enumerating after incubation. The initial suspension were determined to be ≧10^4 CFU/ml. The test culture population was used for calculation of the log reduction achieved at each time point.
Neutralization effectiveness was verified by a filtration test. For each organism, four tubes were prepared with 9 ml D/E Neutralizing Broth and fewer than 100 CFU/ml of the organism. A 1.0 ml aliquot of prepared 9-decenoic acid was added to each tube. Immediately, the entire contents of 2 tubes were filtered through a filtration apparatus and rinsed with sterile diluent. The remaining 2 tubes were held at room temperature for 30 minutes and then the entire contents were filtered using the same procedure. The filters were aseptically transferred to TSA plates and incubated for 48 hours at 37±2° C. and visually examined for growth.
This control was inoculated, subcultured and incubated as in the test procedure.

Question: How did the MBC [1] turn out when `C=CCCCCCCCC(=O)O` [9-decenoic acid] was run?
Answer: Its MBC is 0.1250%.

Question: What about the “Log reduction after exposure at pH 7” value ([2]; 0.5%, pH 7, exposure 0.5 minutes) of the same molecule?
Answer: The value was 0 log.

Question: And the “Log reduction after exposure at pH 7” value ([2]; 0.5%, pH 7, exposure 2 minutes)?
Answer: Its value is 0 log.

Question: And the “Log reduction after exposure at pH 7” value ([2]; 0.75%, pH 7, exposure 0.5 minutes)?
Answer: Its value is 0.83 log.

Question: And the “Log reduction after exposure at pH 7” value ([2]; 0.75%, pH 7, exposure 2 minutes)?
Answer: The value was >4.2 log.

Question: What about the “Log reduction after exposure at pH 7” value ([2]; 1.0%, pH 7, exposure 0.5 minutes) of the same molecule?
Answer: Its value is >4.2 log.

Question: What about the “Log reduction after exposure at pH 7” value ([2]; 1.0%, pH 7, exposure 2 minutes) of the same molecule?
Answer: Its value is >4.2 log.
